Results reported in patent publication US20100320428A1, “GASEOUS DIELECTRICS WITH LOW GLOBAL WARMING POTENTIALS” (priority 2006, published 2010).
Structures can show the parent of a compound that is named as a salt. Where two headings read alike, the source gives them in different places.

Key:
[1] = boiling point; Table 2, preferred dielectric compounds; cited from earlier work
[2] = Dielectric strength by ASTM D2477; assay type: physicochemical; details: 1 atmosphere pressure, 0.1 inch gap, ambient temperature; ASTM D2477 or from literature
[3] = Breakdown voltage at maximum system pressure; assay type: physicochemical; details: for Breakdown voltage at maximum pressure: at maximum pressure: 5 atmospheres (73.5 psia), or lower pressure at which the gas liquefies; for Breakdown voltage compared with air: 1 atmosphere and maximum system pressure
[4] = atmospheric pressure; cited from earlier work
[5] = gas phase; cited from earlier work
[6] = normal state; cited from earlier work

Compound	MY BP [1] [°C]	further results
[N-]=[N+]=O [Nitrous oxide]	−88.5	
FC(F)C(F)(F)F [Gas R125, Pentafluoroethane]		Dielectric strength [2]: 6.4 kV/0.1 inch gap; Breakdown voltage at maximum pressure [3]: 32 kV/0.1 inch gap
O=CC(F)(F)F [trifluoroacetaldehyde]	−21.0	
CC [Ethane]	−88.6	
FC(F)(F)S [trifluoromethane thiol]	−36.7	
FS(F)(F)(F)(F)F [SF6, Sulfur hexafluoride]		Dielectric strength [2]: 14.0 kV/0.1 inch gap; Breakdown voltage at maximum pressure [3]: 70 kV/0.1 inch gap; Breakdown voltage compared with air [4]: nearly three times higher than air; Temperature below which it does not decompose [5]: ≥ 500 °C; Toxicity [6]: non-toxic
C#CC(F)(F)F [3,3,3-trifluoro-propyne]	−48.0	
F[Si](F)(F)F [SiF4, silicon tetrafluoride]		Breakdown voltage compared with air [3]: greater then air
FC(F)(F)C(F)(F)C(F)(F)F [Octafluoropropane]	−36.7	
FC(F)C(F)F [1,1,2,2-Tetrafluoroethane]	−23.0	
FC(F)(F)C(F)(F)F [Hexafluoroethane]	−78.2	
COC(F)(F)F [Ether, methyl trifluoromethyl]	−24.0	
Cl [Hydrogen chloride]	−85.0	
FCC(F)(F)F [1,1,1,2-Tetrafluoroethane]	−26.1	
CC(F)F [Gas R152a, 1,1-Difluoroethane]		Dielectric strength [2]: 5.9 kV/0.1 inch gap; Breakdown voltage at maximum pressure [3]: 29.5 kV/0.1 inch gap
N#CC(F)(F)F [Trifluoroacetonitrile]	−68.8	
CC(F)(F)F [Gas R143a, 1,1,1-Trifluoroethane]		Dielectric strength [2]: 5.8 kV/0.1 inch gap; Breakdown voltage at maximum pressure [3]: 29 kV/0.1 inch gap
FC(F)(F)F [Tetrafluoromethane]	−128.1	
FCC(F)(F)F [Gas R134a, 1,1,1,2-Tetrafluoroethane]		Dielectric strength [2]: 6.6 kV/0.1 inch gap; Breakdown voltage at maximum pressure [3]: 33 kV/0.1 inch gap
FC(F)(F)C#CC(F)(F)F [1,1,1,4,4,4-hexafluoro-2-butyne]	−24.6	
FCF [Difluoromethane]	−51.7	
CC(N)C(=O)O (racemic) [DL-2-aminopropanoic acid]	−50.2	
N#N [Nitrogen]	−195.8	
Cl [HCl, hydrogen chloride]		Breakdown voltage compared with air [3]: greater then air
CCF [Fluoroethane]	−37.7	
FC(F)OC(F)(F)F [Difluoromethyl trifluoromethyl ether]	−35.3	
N [Ammonia]	−33.3	
FC(F)F [Trifluoromethane]	−82.1	
O=C(C(=O)C(F)F)C(F)F [1,1,4,4-tetrafluoro-butane-2,3-dione]	−81.0	
